Results as given in patent US6897237B2, “MMP-12 inhibitors” (Shionogi & Co. Ltd., priority 2000, dated 2005).

Columns and labels:
Format in all cases: biochemical
Conditions in all cases: substrate MOCAc-Pro-Leu-Gly-Leu-A2Pr(DNP)-Ala-Arg-NH2
MMP-9 = target: T1, MMP-9 (Homo sapiens, UniProt P14780); assay: Assay for inhibitory activities on MMPs (fluorogenic peptide substrate): MMP-9
T1 construct: endogenous in cells; host or cells: HT1080 human fibrosarcoma cells, TPA-stimulated; purified in house from conditioned medium
Source text: MMP-9 was isolated and purified by using a combination of procedures described in previous reports as follows. Yasunori Okada, Yukio Gonoji, Katsumi Naka, Katsuro Tomita, Isao Nakanishi, Kazushi Iwata, Kyoko Yamashita, and Taro Hayakawa: Matrix metalloproteinase 9 (92-kDa gelatinase/type IV collagenase) from HT1080 human fibrosarcoma cells. Purification and activation of the precursor and enzymic properties. J. Biol. Chem., 267 (1.992) 21712-21719. Yasunori Okada, Tatsuhisa Morodomi, Jan J, Enghild, Ko Suzuki, Atsushi Yasui, Isao Nakanishi, Guy Salvesen and Hideaki Nagase: Matrix metalloproteinase 2 from human rheumatoid synovial fibroblasts. Purification and activation of the precursor and enzymic properties. Eur. J. Biochem. 194 (1990) 721-730. Robin V Ward, Rosalind M Hembry, John J Reynolds and Gillian Murphy: The purification of tissue inhibitor of metalloproteinase-2 from its 72 kDa progelatinase complex. Biochem. J. 278 (1991) 179-187.
Briefly, human fibrosarcoma ATCC HT1080 cell line was cultured to confluent in Dulbecco's Modified Medium (DMEM) containing 10% fetal-calf serum at 37° C. for 48 hours. Subsequently, the medium of confluent culture was changed to serum-free DMEM medium. To obtain MMP-9, Phorbol-12-myristate-13-acetate (TPA) must be added to this serum-free DMEM medium at a concentration of 50 ng/ml. The TPA treated medium was centrifuged at 3000 rpm for 15 min and the supernatant was concentrated to 450 ml by a Toyo-Roshi UP-20 apparatus with an ultrafiltration membrane. Then, proMMP-9 in this concentrated solution was purified by using columns of Gelatin-Sepharose and Concanavalin A-Sepharose. The pool containing proMMP-9 was dialyzed, concentrated (Toyo-Roshi UP-20) and applied to columns of Sephacryl S-200 and Green A matrix for the separation from TIMPs. The obtained proMMP-9 fraction was activated by TPCK-Trypsin (final conc. […] reaction mix.).
(§1) The enzymatic activity on MMPs was analyzed by the method described in “C. Graham Knight, Frances Willenbrock and Gillian Murphy: A novel coumarin-labelled peptide for sensitive continuous assays of the matrix metalloproteinases: FEBS LETT., 296, (1992), 263-266”. The substrate: MOCAc-Pro-Leu-Gly-Leu-A2Pr(DNP)-Ala-Arg-NH2 was purchased from Peptide Institute, Inc., Osaka, Japan. The measurement of the inhibitory activities (IC50) was carried out by the following four methods;
(§2) (A) Reaction with substrate, enzyme (MMPs) and inhibitor
(§3) (B) Reaction with substrate and inhibitor, without enzyme
(§4) (C) Reaction with substrate and enzyme (MMPs), without inhibitor
(§5) (D) Reaction with substrate only
(§6) IC50 values were calculated by using the following formula and each fluorescence values of above four methods (A to D).
(§7) % inhibition={1−(A−B)/(C−D)}×100
(§8) IC50 means the concentration required to inhibit 50% of the enzyme activity.

MMP-1 = target: T2, MMP-1 (Homo sapiens, UniProt P03956); assay: Assay for inhibitory activities on MMPs (fluorogenic peptide substrate): MMP-1
T2 construct: purchased Yagai
T2 sequence (P03956 100-469): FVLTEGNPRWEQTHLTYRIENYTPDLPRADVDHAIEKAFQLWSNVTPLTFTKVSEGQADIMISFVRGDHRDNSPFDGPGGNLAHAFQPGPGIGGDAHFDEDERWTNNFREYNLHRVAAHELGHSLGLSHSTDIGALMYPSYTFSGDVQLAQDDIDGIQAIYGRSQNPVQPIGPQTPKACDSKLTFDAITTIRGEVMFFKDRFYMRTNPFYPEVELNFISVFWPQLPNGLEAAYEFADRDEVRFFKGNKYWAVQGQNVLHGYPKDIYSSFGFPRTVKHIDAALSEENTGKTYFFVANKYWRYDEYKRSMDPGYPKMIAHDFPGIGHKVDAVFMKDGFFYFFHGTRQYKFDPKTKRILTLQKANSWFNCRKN
Procedure: MMP-1 was purchased from Yagai.
as §1, §2, §3, §4, §5, §6, §7, §8

MMP-2 = target: T3, MMP-2 (Homo sapiens, UniProt P08253); assay: Assay for inhibitory activities on MMPs (fluorogenic peptide substrate): MMP-2
T3 construct: purchased Calbiochem-Novabiochem International, Inc
T3 sequence (P08253 110-660): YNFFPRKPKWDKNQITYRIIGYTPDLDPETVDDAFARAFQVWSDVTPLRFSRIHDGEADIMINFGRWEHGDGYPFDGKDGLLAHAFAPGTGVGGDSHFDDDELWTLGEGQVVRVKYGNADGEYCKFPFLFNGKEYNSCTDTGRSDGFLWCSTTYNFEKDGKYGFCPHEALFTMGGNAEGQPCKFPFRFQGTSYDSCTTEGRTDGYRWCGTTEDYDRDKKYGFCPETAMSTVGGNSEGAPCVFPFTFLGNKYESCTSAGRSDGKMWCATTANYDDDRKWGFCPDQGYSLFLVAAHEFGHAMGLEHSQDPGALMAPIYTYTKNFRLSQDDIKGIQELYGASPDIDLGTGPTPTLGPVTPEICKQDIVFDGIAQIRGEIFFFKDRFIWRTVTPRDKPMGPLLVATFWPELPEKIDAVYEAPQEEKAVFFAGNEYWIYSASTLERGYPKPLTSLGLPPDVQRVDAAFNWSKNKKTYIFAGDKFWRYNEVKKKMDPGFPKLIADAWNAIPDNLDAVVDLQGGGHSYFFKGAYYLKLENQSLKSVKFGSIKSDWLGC
Procedure: MMP-2 was purchased from Calbiochem-Novabiochem International, Inc.
as §1, §2, §3, §4, §5, §6, §7, §8

MMP-12 catalytic domain = target: T4, MMP-12 catalytic domain (Homo sapiens, UniProt P39900); assay: Assay for inhibitory activities on MMPs (fluorogenic peptide substrate): MMP-12
T4 construct: catalytic domain(^100Phe˜^263Gly); His-tag; enterokinase digestion-site; made in house; host or cells: Escherichia coli
Procedure: (§9) In regard to MMP-12, catalytic domain(^100Phe˜^263Gly) was amplified with RT-PCR from Human Placenta Total RNA. This was cloned in Escherichia coli expression vector pTrc99AHE inserted with His-tag sequence and enterokinase digestion-site, induced and expressed by IPTG (Isopropyl-β-D-thiogalactopyranoside) and expressed in a insoluble fraction. Isolation of MMP-12 from a insoluble fraction was carried out by dissolving in modifier (6M urea) by a usual method and purification with metal chelate chromatography (Ni Chelateing Sepharose). And then removing modifier (6M urea) with dialysis and refolding of the enzyme spontaneously gave activated MMP-12.
as §1, §2, §3, §4, §5, §6, §7, §8

MMP-13 catalytic domain = target: T5, MMP-13 catalytic domain (Homo sapiens, UniProt P45452); assay: Assay for inhibitory activities on MMPs (fluorogenic peptide substrate): MMP-13
T5 construct: catalytic domain (^104Tyr˜^267Gly); His-tag; enterokinase digestion-site; made in house; host or cells: Escherichia coli
Procedure: as §9, with “MMP-13, mRNA was prepared from carcinoma cell SW1353 derived from human cartilage stimulate by IL-1, TNF and” for “MMP-12,”, “domain (^104Tyr˜^267Gly)” for “domain(^100Phe˜^263Gly)”, “RT-PCR.” for “RT-PCR from Human Placenta Total RNA.”, “MMP-1.3” for “MMP-12”, “dialyze” for “dialysis”, “MMP-13.” for “MMP-12.”
as §1, §2, §3, §4, §5, §6, §7, §8

MMP-8 catalytic domain = target: T6, MMP-8 catalytic domain (Homo sapiens, UniProt P22894); assay: Assay for inhibitory activities on MMPs (fluorogenic peptide substrate): MMP-8
T6 construct: catalytic domain (^99Phe˜^262Gly); His-tag; enterokinase digestion-site; made in house; host or cells: Escherichia coli
Source text: In regard to MMP-8, catalytic domain (^99Phe˜^262Gly) was amplified with PCR using commercial available Human Bone Marrow cDNA. This was cloned in Escherichia. coli expression vector pTrc99AHE inserted with His-tag sequence and enterokinase digestion-site, induced and expressed by IPTG (Isopropyl-β-D-thiogalactopyranoside) and expressed in a insoluble fraction (Than F. Ho, M. Walid Qoronfleh, Robert C. Wahl, Trica A. Pulvino, Karen J. Vavra, Joe Falvo, Tracey M. Banks, Patricia G. Brake and Richard B. Ciccarelli: Gene expression, purification and characterization of recombinant human neutrophil collagenase. Gene 146, (1994) 297-301, Prepared by the a improved method of this material). Isolation of MMP-8 from insoluble fraction was carried out by dissolving in modifier (6M urea) by a usual method and purification with metal chelate chromatography. And then removing modifier (6M urea) with dialysis and refolding of the enzyme spontaneously gave activated MMP-8.
as §1, §2, §3, §4, §5, §6, §7, §8

T4 sequence (P39900 100-263): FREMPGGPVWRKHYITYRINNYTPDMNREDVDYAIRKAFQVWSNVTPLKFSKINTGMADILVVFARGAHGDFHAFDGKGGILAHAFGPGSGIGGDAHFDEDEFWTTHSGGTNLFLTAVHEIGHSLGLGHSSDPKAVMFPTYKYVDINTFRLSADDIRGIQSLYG
T1 sequence (P14780 107-707 limits assumed): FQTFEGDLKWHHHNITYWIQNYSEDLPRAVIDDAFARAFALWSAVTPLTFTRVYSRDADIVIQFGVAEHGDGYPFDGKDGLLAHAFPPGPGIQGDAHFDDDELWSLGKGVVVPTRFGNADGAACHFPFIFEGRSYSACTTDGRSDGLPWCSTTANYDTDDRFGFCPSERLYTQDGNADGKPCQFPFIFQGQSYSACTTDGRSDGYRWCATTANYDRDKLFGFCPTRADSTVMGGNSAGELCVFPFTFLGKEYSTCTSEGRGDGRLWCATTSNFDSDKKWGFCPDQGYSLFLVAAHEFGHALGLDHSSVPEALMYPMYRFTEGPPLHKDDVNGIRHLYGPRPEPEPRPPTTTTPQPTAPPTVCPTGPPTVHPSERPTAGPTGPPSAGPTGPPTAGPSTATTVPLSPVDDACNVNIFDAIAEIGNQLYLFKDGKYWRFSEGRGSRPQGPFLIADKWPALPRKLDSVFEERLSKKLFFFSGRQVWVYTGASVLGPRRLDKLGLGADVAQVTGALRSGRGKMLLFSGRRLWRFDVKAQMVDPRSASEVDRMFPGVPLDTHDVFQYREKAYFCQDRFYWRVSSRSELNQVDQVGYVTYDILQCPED
T6 sequence (P22894 99-262): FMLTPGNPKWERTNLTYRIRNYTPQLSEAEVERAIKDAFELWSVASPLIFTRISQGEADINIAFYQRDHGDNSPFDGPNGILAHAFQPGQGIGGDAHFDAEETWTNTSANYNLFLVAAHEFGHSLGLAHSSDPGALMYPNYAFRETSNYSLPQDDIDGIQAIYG

Row | IC50 (MMP-9) | IC50 (MMP-1) | IC50 (MMP-2) | IC50 (MMP-12 catalytic domain) | IC50 (MMP-13 catalytic domain) | IC50 (MMP-8 catalytic domain) | Compound
1 | 2110 nM | > 10000 nM | 1120 nM | 48 nM | 2300 nM | 2650 nM | O=C(O)[C@H](NS(=O)(=O)c1ccc(C#Cc2ccc3ccccc3c2)s1)c1ccc(O)cc1 [Compound B-8]
2 | 4230 nM | > 10000 nM | 1270 nM | 260 nM | 7180 nM | > 10000 nM | O=C(O)CNS(=O)(=O)c1ccc(C#Cc2ccc3ccccc3c2)s1 [Compound B-9]
3 | 1100 nM | > 10000 nM | 1250 nM | 40 nM | 1400 nM | 2600 nM | O=C(O)C[C@@H](NS(=O)(=O)c1ccc(C#Cc2ccc3ccccc3c2)s1)C(=O)O [Compound B-12]
4 | 870 nM | > 10000 nM | 350 nM | 8.8 nM | 950 nM | 1000 nM | CSCC[C@@H](NS(=O)(=O)c1ccc(C#Cc2ccc3ccccc3c2)s1)C(=O)O [Compound B-10]
5 | > 10000 nM | > 10000 nM | > 10000 nM | 240 nM | > 10000 nM | > 10000 nM | O=C(O)[C@H](Cc1ccccc1)NS(=O)(=O)c1ccc(C#Cc2ccc3ccccc3c2)s1 [Compound B-2]
6 | 3270 nM | > 10000 nM | 2230 nM | 82 nM | 6900 nM | 2340 nM | CC(C)[C@H](NS(=O)(=O)c1ccc(C#Cc2ccc3ccccc3c2)s1)C(=O)O [Compound B-5]
7 | 750 nM | > 10000 nM | – | 16 nM | > 10000 nM | 1400 nM | O=C(O)[C@@H](Cc1c[nH]c2ccccc12)NS(=O)(=O)c1ccc(C#Cc2ccc3ccccc3c2)s1 [Compound B-3]
8 | > 10000 nM | > 10000 nM | > 10000 nM | 820 nM | > 10000 nM | > 10000 nM | O=C(O)[C@@H](Cc1ccccc1)NS(=O)(=O)c1ccc(C#Cc2cccc3ccccc23)s1 [Compound B-17]
9 | 6310 nM | > 10000 nM | 2030 nM | 160 nM | > 10000 nM | 7790 nM | C[C@H](NS(=O)(=O)c1ccc(C#Cc2ccc3ccccc3c2)s1)C(=O)O [Compound B-7]
10 | 6560 nM | > 10000 nM | 560 nM | 150 nM | 2330 nM | 4510 nM | O=C(Nc1ccc(S(=O)(=O)N[C@@H](Cc2ccccc2)C(=O)O)cc1)c1ccc2ccccc2c1 [Compound D-2]

The next lines start with the molecule.

Row | Compound | IC50 (MMP-9) | IC50 (MMP-1) | IC50 (MMP-2) | IC50 (MMP-12 catalytic domain) | IC50 (MMP-13 catalytic domain) | IC50 (MMP-8 catalytic domain)
11 | O=C(O)[C@H](Cc1ccccc1)NS(=O)(=O)c1ccc(C#Cc2ccc3c(c2)OCO3)cc1 [Compound A-22] | 300 nM | > 10000 nM | 13 nM | 7.9 nM | 37 nM | 10 nM
12 | O=C(O)[C@H](Cc1ccccc1)NS(=O)(=O)c1ccc(C#Cc2ccc3ccccc3c2)cc1 [Compound A-3] | > 10000 nM | > 10000 nM | > 10000 nM | 21 nM | > 10000 nM | > 10000 nM
13 | O=C(O)[C@@H](Cc1ccccc1)NS(=O)(=O)c1ccc(C#Cc2ccc3ccccc3c2)cc1 [Compound A-2] | > 10000 nM | > 10000 nM | > 10000 nM | 16 nM | > 10000 nM | > 10000 nM
14 | CC(C)[C@@H](NS(=O)(=O)c1ccc(C#Cc2ccc3ccccc3c2)cc1)C(=O)O [Compound A-5] | 330 nM | > 10000 nM | 110 nM | 14 nM | 340 nM | 1060 nM
15 | O=C(O)[C@H](Cc1c[nH]c2ccccc12)NS(=O)(=O)c1ccc(C#Cc2ccc3ccccc3c2)cc1 [Compound A-15] | 900 nM | > 10000 nM | 460 nM | 32 nM | 890 nM | > 10000 nM
16 | O=C(O)CNS(=O)(=O)c1ccc(C#Cc2ccc3ccccc3c2)cc1 [Compound A-9] | 1800 nM | > 10000 nM | 250 nM | 69 nM | 2880 nM | > 10000 nM
17 | CC(C)[C@H](NS(=O)(=O)c1ccc(C#Cc2ccc3ccccc3c2)cc1)C(=O)O [Compound A-6] | – | > 10000 nM | – | – | – | –
18 | CC(C)C[C@H](NS(=O)(=O)c1ccc(C#Cc2ccc3ccccc3c2)cc1)C(=O)O [Compound A-11] | 1270 nM | > 10000 nM | 370 nM | 5.9 nM | 460 nM | 580 nM
